Experimental findings from patent US20100216788A1, “FUSED HETEROCYCLIC COMPOUND” (TAKEDA PHARMACEUTICAL COMPANY LIMITED, priority 2005, published 2010) are described below.

The target in assay [1] is T1, HER2 intracellular domain (Homo sapiens, UniProt P04626).
T1 construct: made in house; host or cells: SF-21 insect cells infected with recombinant baculovirus BAC-HER2 (pFASTBAC1)
The assay is described as follows: Determination of HER2 kinase inhibitory activity. The assay is classed as biochemical. To be noted: test compound at 1.0 μM, poly-Glu:Tyr (4:1) substrate, [γ-32P]ATP, 25° C. 10 min; for inhibition at 1 µM: read-out: Inhibitory rate (%) at 1.0 μM. The procedure:
Human HER2 gene was cloned by RT-PCR using total RNA prepared from MCF7 cells as a template. The primer used for RT-PCR was prepared from nucleotide sequence (Genbank Accession No. M11730) information of HER2 gene by adding a nucleotide sequence encoding DYKDDDD peptide and a restriction enzyme recognition sequence to a nucleotide sequence (2176-3918 of Genbank Accession No. M11730) encoding the HER2 intracellular domain region, so that the protein contains an N-terminal DYKDDDD peptide tag. The primer nucleotide sequence is shown below.
The RT reaction was conducted using SuperScript First-Strand Synthesis System for RT-PCR (Invitrogen) and the PCR reaction was conducted using a KOD-plus kit (TOYOBO). The obtained PCR product was electrophoresed on agarose gel (1%), the DNA fragment amplified by PCR was recovered from the gel, and then digested with restriction enzymes Sal I and Sph I. The DNA treated with the restriction enzymes was electrophoresed on agarose gel (1%), and the obtained DNA fragment was recovered and ligated to plasmid pFASTBAC1 (Invitrogen) digested with restriction enzymes Sal I and Sph I to give expression plasmid pFB-HER2. The nucleotide sequence of the insertion fragment was confirmed and found to be identical with the nucleotide sequence (2176-3918 of Genbank Accession M11730) of HER2 intracellular domain. Furthermore, using BAC-TO-BAC Baculovirus Expression System (Invitrogen), recombinant baculovirus BAC-HER2 was prepared.
SF-21 cells were sown at 1×10^6 cells/mL to Sf-900II SFM medium (1 L, Invitrogen) containing 10% fetal bovine serum (trace), 50 mg/L gentamicin (Invitrogen) and 0.1% Pluronic F-68 (Invitrogen), and shaking culture was performed using a 2 L volume Erlenmeyer flask at 27° C., 100 rpm. After culturing for 24 hr, recombinant baculovirus BAC-HER2 (13.4 mL) was added, and the mixture was further cultured for 3 days. The culture medium was centrifuged at 2,000 rpm for 5 min. to give virus-infected cells. The infected cells were washed with a phosphate buffered saline (Invitrogen), centrifuged under the same conditions, and the cells were preserved at −80° C. The cryopreserved cells were thawed in ice, suspended in buffer A (50 mM Tris buffer (30 mL, pH 7.4) containing 20% glycerol, 0.15 M NaCl) supplemented with Complete Protease Inhibitor (Boehringer), and ruptured 3 times with a Polytron homogenizer (Kinematica) at 20,000 rpm for 30 sec. The rupture medium was clarified by centrifugation at 40,000 rpm for 30 min. and filtered with a 0.45 μm filter. The filtrate was passed through a column packed with Anti-FLAG M2 Affinity Gel (4 mL, Sigma) at a flow rate of about 0.5 mL/min. The column was washed with buffer A, and eluted with buffer A containing 100 μg/mL of FLAG peptide. The eluate was concentrated with Vivaspin 20 (Vivascience) having a molecular weight cut off of 30K. The concentrate was purified by gel filtration using Hi Load Superdex 200pg 16/60 (Amersham Bioscience) equilibrated with buffer A. The fractions containing HER2 intracellular domain were collected, glycerol was added to the final concentration of 50% and cryopreserved at −80° C.
A test compound dissolved in dimethyl sulfoxide (DMSO) was diluted with a buffer for kinase reaction (50 mM Tris-HCl (pH7.5), 5 mM MgCl2, 5 mM MnCl2, 2 mM dithiothreitol, 0.01% Tween-20). To this compound solution (10 μL) was added a buffer for kinase reaction (20 μL) containing 5 μg/mL of HER2 intracellular domain obtained in Experimental Example 1B and 12.5 μg/mL of polypeptide substrate poly-Glu:Tyr (4:1) (Sigma). To the obtained mixture was added 20 μL of ATP solution (1.25 μM ATP, 0.05 μCi [γ-^32P]ATP), the mixture was allowed to react at 25° C. for 10 min. and the reaction was quenched with 50 μL of 20% TCA solution. The reaction solution was allowed to stand at 4° C. for 20 min., and the acid insoluble fraction was transferred to GF/C filter (PerkinElmer) using cell harvester (PerkinElmer) and washed with 250 mM phosphoric acid solution. […]

For assay [2], the system named is human breast cancer cell BT-474. The assay is described as follows: Inhibitory action on breast cancer cell BT-474 proliferation in vitro. It counts as cell-based. Conditions: 120 h, BT-474 cells, cultured 5 days with compound, SRB staining of cell protein. On the procedure:
A suspension of human breast cancer cell. BT-474 (100 μl (6,000 cells)) were seeded to attach in a 96-well microplate and cultured in an incubator (37° C., 5% carbon dioxide). On the following day, 100 μl of a solution of each test compound previously diluted serially in 2-fold, was added to give indicated dose, and the cells were cultured for 5 days. After the culture medium containing the test compound was removed, the cells were washed and fixed with 50% trichloroacetic acid, after which a 0.4% (w/v) SRB solution (dissolved in 1% acetic acid) was added to stain the cell protein (Skehan et al., Journal of the National Cancer Institute, Vol. 82, pp. 1107-1112, 1990). After washing with a 1% acetic acid solution, 100 μl of Tris solution (10 mM) was added to extract the pigment and the absorbance was measured at a wavelength of 550 nm to quantify the amount of cells as protein content. Taking as 100% the protein content for the control group, which received no test compound solution, the ratio of the residual protein content for, each treatment group was determined, and the compound concentration required to achieve 50% suppression of the residual cell content relative to the control (IC50 value) was calculated.
Background: Sulforhodamine B stains cellular protein and so reports cell mass.

Structures can show the parent of a compound that is named as a salt.

T1 sequence (P04626 676-1255 limits assumed): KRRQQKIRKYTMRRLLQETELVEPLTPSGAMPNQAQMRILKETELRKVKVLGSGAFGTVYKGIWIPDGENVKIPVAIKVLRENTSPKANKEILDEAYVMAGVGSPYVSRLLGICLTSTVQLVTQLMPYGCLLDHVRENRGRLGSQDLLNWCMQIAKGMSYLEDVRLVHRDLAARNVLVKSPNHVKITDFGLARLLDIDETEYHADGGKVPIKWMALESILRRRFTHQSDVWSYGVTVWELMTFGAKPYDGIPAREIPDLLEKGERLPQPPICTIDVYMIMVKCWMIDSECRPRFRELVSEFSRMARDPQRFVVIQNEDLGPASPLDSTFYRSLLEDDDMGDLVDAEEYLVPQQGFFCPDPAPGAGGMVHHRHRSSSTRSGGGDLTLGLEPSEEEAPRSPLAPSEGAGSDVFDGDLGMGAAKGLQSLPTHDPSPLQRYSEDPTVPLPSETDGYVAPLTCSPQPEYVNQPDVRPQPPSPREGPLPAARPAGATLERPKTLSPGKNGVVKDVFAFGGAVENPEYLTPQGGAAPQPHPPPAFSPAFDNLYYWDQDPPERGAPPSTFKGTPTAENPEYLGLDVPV

In the case of `CC(C)(C(=O)NCCn1ccc2ncnc(Nc3ccc(Oc4cccc(Cl)c4)c(Cl)c3)c21)S(C)(=O)=O` [Example A-1, N-[2-(4-{[3-chloro-4-(3-chlorophenoxy)phenyl]amino}-5H-pyrrolo[3,2-d]pyrimidin-5-yl)ethyl]-2-methyl-2-(methylsulfonyl)propanamide], the inhibition at 1 µM in assay [1] is 98%. Besides, in assay [2], the IC50 (as a rule, the concentration that gives 50% inhibition) is less than 100 nM.
For the compound `CC(C)(C(=O)NCCn1ccc2ncnc(Nc3ccc(Oc4cccc(Cl)c4)c(Cl)c3)c21)S(C)(=O)=O.Cc1ccc(S(=O)(=O)O)cc1` [Example A-15, N-[2-(4-{[3-chloro-4-(3-chlorophenoxy)phenyl]amino}-5H-pyrrolo[3,2-d]pyrimidin-5-yl)ethyl]-2-methyl-2-(methylsulfonyl)propanamide p-toluenesulfonate], the “Inhibitory rate (%) at 1.0 μM” value in assay [1] amounted to 99%.
For `OCCOCCn1ccc2ncnc(Nc3cnc(Oc4cccc(C(F)(F)F)c4)c(Cl)c3)c21` [Example B-1, 2-{2-[4-({5-chloro-6-[3-(trifluoromethyl)phenoxy]pyridin-3-yl}amino)-5H-pyrrolo[3,2-d]pyrimidin-5-yl]ethoxy}ethanol], the inhibition at 1 µM in assay [1] is 99%.
As to `CC(C)(C)NC(=O)c1cccc(Oc2ccc(Nc3ncnc4ccn(CCO)c34)cc2Cl)c1` [Example C-26, N-(tert-butyl)-3-(2-chloro-4-{[5-(2-hydroxyethyl)-5H-pyrrolo[3,2-d]pyrimidin-4-yl]amino}phenoxy)benzamide], the inhibition at 1 µM in assay [1] was 98%.
As for `O=C(Nc1cccc(Oc2ccc(Nc3ncnc4ccn(CCOCCO)c34)cc2Cl)c1)C1CC1` [Example C-45, N-{3-[2-chloro-4-({5-[2-(2-hydroxyethoxy)ethyl]-5H-pyrrolo[3,2-d]pyrimidin-4-yl}amino)phenoxy]phenyl}cyclopropanecarboxamide], in assay [1], the inhibition at 1 µM is 97%. Further, in assay [2], the IC50 was less than 100 nM.
`CC(C)(C)NC(=O)Cc1cccc(Oc2ccc(Nc3ncnc4ccn(CCO)c34)cc2Cl)c1` [Example C-89, N-(tert-butyl)-2-[3-(2-chloro-4-{[5-(2-hydroxyethyl)-5H-pyrrolo[3,2-d]pyrimidin-4-yl]amino}phenoxy)phenyl]acetamide]: the inhibition at 1 µM in assay [1] is 100%.
As to `CS(=O)(=O)CC(=O)NCCn1ccc2ncnc(Nc3ccc(Oc4cccc(OCC5CC5)c4)c(Cl)c3)c21` [Example C-97, N-{2-[4-({3-chloro-4-[3-(cyclopropylmethoxy)phenoxy]phenyl}amino)-5H-pyrrolo[3,2-d]pyrimidin-5-yl]ethyl}-2-(methylsulfonyl)acetamide hydrochloride], the IC50 in assay [2] is less than 100 nM.
On to `Cc1cc(Nc2ncnc3ccn(CCNC(=O)CS(C)(=O)=O)c23)ccc1Oc1cccc(OCC(F)(F)F)c1` [Example C-116, 2-(methylsulfonyl)-N-{2-[4-({3-methyl-4-[3-(2,2,2-trifluoroethoxy)phenoxy]phenyl}amino)-5H-pyrrolo[3,2-d]pyrimidin-5-yl]ethyl}acetamide hydrochloride], for which the IC50 in assay [2] is less than 100 nM.
For the compound `CC(C)(C)CC(=O)c1cccc(Oc2ccc(Nc3ncnc4ccn(CCO)c34)cc2Cl)c1` [Example E-22, 1-[3-(2-chloro-4-{[5-(2-hydroxyethyl)-5H-pyrrolo[3,2-d]pyrimidin-4-yl]amino}phenoxy)phenyl]-3,3-dimethylbutan-1-one], the inhibition at 1 µM in assay [1] is 99%.
`CC(C)(O)CC(=O)NCCn1ccc2ncnc(Nc3ccc4c(cnn4Cc4cccc(F)c4)c3)c21` [Example G-5, N-[2-(4-{[1-(3-fluorobenzyl)-1H-indazol-5-yl]amino}-5H-pyrrolo[3,2-d]pyrimidin-5-yl)ethyl]-3-hydroxy-3-methylbutanamide]: the inhibition at 1 µM in assay [1] was determined as 93%. For the same compound, in assay [2], the IC50 was less than 100 nM.
Turning to `CC(C)(C)NC(=O)c1cccc(Cn2ncc3cc(Nc4ncnc5ccn(CCO)c45)ccc32)c1` [Example G-14, N-(tert-butyl)-3-[(5-{[5-(2-hydroxyethyl)-5H-pyrrolo[3,2-d]pyrimidin-4-yl]amino}-1H-indazol-1-yl)methyl]benzamide], the inhibition at 1 µM in assay [1] was found to be 100%.
